Values of other authors as cited in patent US12396980B2, “Melatonin for preventing and treating radiation cystitis” (RepoCeuticals A/S, priority 2015, dated 2025).

Columns and labels:
[1] = system: rat urinary bladder; details: intraperitoneal
[2] = system: lymphocytes; details: prior oral dosage; human beings
[3] = system: radiation cystitis; details: human patients

COc1ccc2[nH]cc(CCNC(C)=O)c2c1 [melatonin, /V-acetyl-5-methoxytryptamine]
protective effect against radiation-induced oxidative changes to the rat urinary bladder [1]: protective effect
protective effect on the damage caused by subsequent ex vivo radiation exposure of lymphocytes [2]: protective effect

COC1=C(OC)C(=O)C(C/C=C(\C)CC/C=C(\C)CC/C=C(\C)CC/C=C(\C)CC/C=C(\C)CC/C=C(\C)CC/C=C(\C)CC/C=C(\C)CC/C=C(\C)CCC=C(C)C)=C(C)C1=O [coenzyme Q10]
water solubility: almost water-insoluble

C[S+](C)[O-] [DMSO, Dimethyl sulfoxide]
therapeutic effect on radiation cystitis [3]: some therapeutic effect
